Source: patent US8192962B2, “Processes for detecting toxic substances” (Daikin Industries, Ltd., priority 2001, dated 2012)

Test system: Energy system protein genes
Assay: DNA chip mRNA expression in yeast, energy system protein genes (Table 4)
Type: cell-based, Saccharomyces cerevisiae S288C
Procedure: Yeast (Saccharomyces cerevisiae S288C (α SUC2mal mel gap2 CUP1)) were incubated at 25° C. on YPD medium (yeast extract 1%, polypepton 2%, glucose 2%). One of toxic chemical substances was added to the cells at logarithmic growth phase, and the cells were further incubated for two hours. Cells were cultured without any chemical substance in the same condition, and were used as control. Concentrations of the chemical substances were defined to inhibit the growth of the yeast but not lead to death.
After completion of the incubation, the culture was centrifuged to collect the cells. To the cells, sodium acetate buffer (50 mM sodium acetate, 10 mM EDTA, 1% SDS) was added, and the mixture was shaken at 65° C. for five minutes, followed by returning to room temperature, and obtaining the supernatant, of which the procedures were repeated two times. To the supernatant, ½ amount of a solution of phenol/chloroform was added, and the mixture was centrifuged to give a supernatant, which was added with an equal amount of chloroform, and the mixture was centrifuged to give a supernatant. To the supernatant, an equal amount of isopropanol containing 0.3 M sodium acetate was added, and the mixture was allowed to stand at room temperature for 30 minutes, after which the mixture was centrifuged to give a sediment of the whole RNAs. Seventy % ethanol was added to the sediment, and the mixture was again centrifuged to give a sediment, which was then dried and dissolved in water. mRNA was isolated from the whole RNAs as followings. In view of the fact that a poly A chain is attached to the 3′ terminus of mRNA, a polynucleotide having a poly T structure which was immobilized on the surface of latex beads was used to trap the mRNA, and then the mRNA was washed and eluted with spine column (Oligotex-dT30<Super>mRNA Purification Kit, Takara). Reverse transcription of the mRNA was conducted with a reverse transcriptase (Super Script II Reverse Transcriptase; catalogue No. 18064-014, GibcoBRL) using fluorescence-labeled nucleotides to give cDNAs that were introduced with Cy3-dUTP or Cy5-dUTP during the reverse transcription.
The labeled cDNAs were dissolved in TE buffer (10mM Tris-HCl/1 mM EDTA, pH8.0), and the solution was dropped on the DNA chip containing the whole genes of yeast (DNA Chip Research Inc. Japan) so that the cDNAs were hybridized on the DNA chip at 65° C. for over 12 hours. The fluoresces intensity of the DNA chip was read with a scanner, and the ratio relative to the fluorescence intensity resulting from the absence of chemical substance was estimated as the following, which is shown in Tables 1 to 9: […]

CCCCCCCCCCCCc1ccc(S(=O)(=O)[O-])cc1.[Na+] [(17), sodium dodecylbenzosulfonate]
The level of expressed mRNA in the presence of chemical substance/The level of expressed mRNA in the absence of chemical substance (yeast gene YJR048W): 1.2 | The level of expressed mRNA in the presence of chemical substance/The level of expressed mRNA in the absence of chemical substance (yeast gene YJR121W, cells incubated two hours with the chemical substance): 1.1 | The level of expressed mRNA in the presence of chemical substance/The level of expressed mRNA in the absence of chemical substance (yeast gene YJR155W): 1.3 | The level of expressed mRNA in the presence of chemical substance/The level of expressed mRNA in the absence of chemical substance (yeast gene YKL016C, cells incubated two hours with the chemical substance): 1.0 | The level of expressed mRNA in the presence of chemical substance/The level of expressed mRNA in the absence of chemical substance (yeast gene YKL060C, cells incubated two hours with the chemical substance): 1.2 | The level of expressed mRNA in the presence of chemical substance/The level of expressed mRNA in the absence of chemical substance (yeast gene YKL141W, cells incubated two hours with the chemical substance): 0.9 | The level of expressed mRNA in the presence of chemical substance/The level of expressed mRNA in the absence of chemical substance (yeast gene YKL148C, cells incubated two hours with the chemical substance): 0.8 | The level of expressed mRNA in the presence of chemical substance/The level of expressed mRNA in the absence of chemical substance (yeast gene YKR009C, cells incubated two hours with the chemical substance): 1.9 | The level of expressed mRNA in the presence of chemical substance/The level of expressed mRNA in the absence of chemical substance (yeast gene YKR058W, cells incubated two hours with the chemical substance, 25° C., YPD medium): 0.8 | The level of expressed mRNA in the presence of chemical substance/The level of expressed mRNA in the absence of chemical substance (yeast gene YKR097W): 1.1 | The level of expressed mRNA in the presence of chemical substance/The level of expressed mRNA in the absence of chemical substance (yeast gene YLL041C, cells incubated two hours with the chemical substance): 1.1 | The level of expressed mRNA in the presence of chemical substance/The level of expressed mRNA in the absence of chemical substance (yeast gene YLR038C, cells incubated two hours with the chemical substance): 1.2 | The level of expressed mRNA in the presence of chemical substance/The level of expressed mRNA in the absence of chemical substance (yeast gene YLR044C, cells incubated two hours with the chemical substance): 0.9 | The level of expressed mRNA in the presence of chemical substance/The level of expressed mRNA in the absence of chemical substance (yeast gene YLR134W, cells incubated two hours with the chemical substance): 0.6 | The level of expressed mRNA in the presence of chemical substance/The level of expressed mRNA in the absence of chemical substance (yeast gene YLR258W, cells incubated two hours with the chemical substance): 1.0 | The level of expressed mRNA in the presence of chemical substance/The level of expressed mRNA in the absence of chemical substance (yeast gene YLR284C, cells incubated two hours with the chemical substance): 2.9 | The level of expressed mRNA in the presence of chemical substance/The level of expressed mRNA in the absence of chemical substance (yeast gene YLR295C, cells incubated two hours with the chemical substance, 25° C., YPD medium): 0.9 | The level of expressed mRNA in the presence of chemical substance/The level of expressed mRNA in the absence of chemical substance (yeast gene YLR304C, cells incubated two hours with the chemical substance): 0.5 | The level of expressed mRNA in the presence of chemical substance/The level of expressed mRNA in the absence of chemical substance (yeast gene YLR345W): 1.2 | The level of expressed mRNA in the presence of chemical substance/The level of expressed mRNA in the absence of chemical substance (yeast gene YLR354C, cells incubated two hours with the chemical substance): 1.0 | The level of expressed mRNA in the presence of chemical substance/The level of expressed mRNA in the absence of chemical substance (yeast gene YLR377C, cells incubated two hours with the chemical substance): 0.9 | The level of expressed mRNA in the presence of chemical substance/The level of expressed mRNA in the absence of chemical substance (yeast gene YLR395C, cells incubated two hours with the chemical substance): 1.2 | The level of expressed mRNA in the presence of chemical substance/The level of expressed mRNA in the absence of chemical substance (yeast gene YML087C): 0.7 | The level of expressed mRNA in the presence of chemical substance/The level of expressed mRNA in the absence of chemical substance (yeast gene YML120C, cells incubated two hours with the chemical substance): 1.0 | The level of expressed mRNA in the presence of chemical substance/The level of expressed mRNA in the absence of chemical substance (yeast gene YML129C, cells incubated two hours with the chemical substance): 1.3 | The level of expressed mRNA in the presence of chemical substance/The level of expressed mRNA in the absence of chemical substance (yeast gene YMR073C, cells incubated two hours with the chemical substance): 0.8 | The level of expressed mRNA in the presence of chemical substance/The level of expressed mRNA in the absence of chemical substance (yeast gene YMR118C): 0.8 | The level of expressed mRNA in the presence of chemical substance/The level of expressed mRNA in the absence of chemical substance (yeast gene YMR205C, cells incubated two hours with the chemical substance): 0.6 | The level of expressed mRNA in the presence of chemical substance/The level of expressed mRNA in the absence of chemical substance (yeast gene YMR261C, cells incubated two hours with the chemical substance): 0.7 | The level of expressed mRNA in the presence of chemical substance/The level of expressed mRNA in the absence of chemical substance (yeast gene YMR267W, cells incubated two hours with the chemical substance, 25° C., YPD medium): 0.9 | The level of expressed mRNA in the presence of chemical substance/The level of expressed mRNA in the absence of chemical substance (yeast gene YMR323W, cells incubated two hours with the chemical substance): 1.1 | The level of expressed mRNA in the presence of chemical substance/The level of expressed mRNA in the absence of chemical substance (yeast gene YNL071W): 1.0 | The level of expressed mRNA in the presence of chemical substance/The level of expressed mRNA in the absence of chemical substance (yeast gene YNL202W, cells incubated two hours with the chemical substance): 2.4 | The level of expressed mRNA in the presence of chemical substance/The level of expressed mRNA in the absence of chemical substance (yeast gene YNL241C): 1.0 | The level of expressed mRNA in the presence of chemical substance/The level of expressed mRNA in the absence of chemical substance (yeast gene YNL331C): 1.7 | The level of expressed mRNA in the presence of chemical substance/The level of expressed mRNA in the absence of chemical substance (yeast gene YOL086C, cells incubated two hours with the chemical substance): 1.1 | The level of expressed mRNA in the presence of chemical substance/The level of expressed mRNA in the absence of chemical substance (yeast gene YOL165C): 1.6 | The level of expressed mRNA in the presence of chemical substance/The level of expressed mRNA in the absence of chemical substance (yeast gene YOR142W, cells incubated two hours with the chemical substance): 0.9 | The level of expressed mRNA in the presence of chemical substance/The level of expressed mRNA in the absence of chemical substance (yeast gene YOR178C, cells incubated two hours with the chemical substance): 1.0 | The level of expressed mRNA in the presence of chemical substance/The level of expressed mRNA in the absence of chemical substance (yeast gene YOR388C, cells incubated two hours with the chemical substance): 1.0 | The level of expressed mRNA in the presence of chemical substance/The level of expressed mRNA in the absence of chemical substance (yeast gene YPL031C, cells incubated two hours with the chemical substance): 1.4 | The level of expressed mRNA in the presence of chemical substance/The level of expressed mRNA in the absence of chemical substance (yeast gene YPL061W, cells incubated two hours with the chemical substance): 1.6 | The level of expressed mRNA in the presence of chemical substance/The level of expressed mRNA in the absence of chemical substance (yeast gene YPL088W): 9.1 | The level of expressed mRNA in the presence of chemical substance/The level of expressed mRNA in the absence of chemical substance (yeast gene YPL171C): 2.4 | The level of expressed mRNA in the presence of chemical substance/The level of expressed mRNA in the absence of chemical substance (yeast gene YPL240C): 0.8 | The level of expressed mRNA in the presence of chemical substance/The level of expressed mRNA in the absence of chemical substance (yeast gene YPL262W, cells incubated two hours with the chemical substance): 1.1 | The level of expressed mRNA in the presence of chemical substance/The level of expressed mRNA in the absence of chemical substance (yeast gene YPL275W, cells incubated two hours with the chemical substance): 1.0 | The level of expressed mRNA in the presence of chemical substance/The level of expressed mRNA in the absence of chemical substance (yeast gene YPL276W, cells incubated two hours with the chemical substance): 1.1 | The level of expressed mRNA in the presence of chemical substance/The level of expressed mRNA in the absence of chemical substance (yeast gene YPR048W, cells incubated two hours with the chemical substance): 0.7 | The level of expressed mRNA in the presence of chemical substance/The level of expressed mRNA in the absence of chemical substance (yeast gene YPR184W, cells incubated two hours with the chemical substance): 1.0
